Experimental data reported in ChEMBL document CHEMBL3774331, “Inhibition of tau aggregation using a naturally-occurring cyclic peptide scaffold” (Eur J Med Chem, 2016).
The source made the active and inactive calls. No cut-off for these calls is given here. Where a SMILES comes first, the peptide text is derived from it. Bridges are numbered along the chain shown (N, C = ends).

System: not listed separately
Assay: Binding affinity to thioflavin S at compound:AcPHF6 ratio of 1:1 to 1:64 incubated for 120 mins by fluorescence assay

SMILES	Activity
CC(C)[C@H](NC(=O)CN)C(=O)N[C@H]1CSSC[C@@H](C(=O)N[C@@H](CCCNC(=N)N)C(=O)N[C@@H](CCCNC(=N)N)C(=O)O)NC(=O)[C@@H](C(C)C)NC(=O)C2CSSCC(NC(=O)[C@H](CCCNC(=N)N)NC1=O)C(=O)N[C@@H](C(C)C)C(=O)N[C@H]1CSSC[C@H](NC(=O)[C@H](C(C)C)NC(=O)CNC(=O)[C@H](CCCNC(=N)N)NC(=O)[C@H](CCCNC(=N)N)NC1=O)C(=O)N[C@@H](CCCNC(=N)N)C(=O)N2	Active

System: not listed separately
Assay: Activation of TAU derived synthetic hexapeptide AcPHF6 fibril formation at compound:AcPHF6 ratio of 1:1 to 1:64 incubated for 60 mins by thioflavin S fluorescence assay

SMILES	Activity
CC(C)[C@H](NC(=O)CN)C(=O)N[C@H]1CSSC[C@@H](C(=O)N[C@@H](CCCNC(=N)N)C(=O)N[C@@H](CCCNC(=N)N)C(=O)O)NC(=O)[C@@H](C(C)C)NC(=O)C2CSSCC(NC(=O)[C@H](CCCNC(=N)N)NC1=O)C(=O)N[C@@H](C(C)C)C(=O)N[C@H]1CSSC[C@H](NC(=O)[C@H](C(C)C)NC(=O)CNC(=O)[C@H](CCCNC(=N)N)NC(=O)[C@H](CCCNC(=N)N)NC1=O)C(=O)N[C@@H](CCCNC(=N)N)C(=O)N2	Active

System: not listed separately
Assay: Inhibition of TAU derived synthetic hexapeptide AcPHF6 fibril formation incubated for 60 mins by thioflavin T fluorescence assay

SMILES	inhibition
CC[C@H](C)[C@@H]1NC(=O)[C@H](CCC(N)=O)NC(=O)[C@H](C(C)C)NC(=O)CNC(=O)[C@H]2CCCN2C(=O)[C@H](C(C)C)NC(=O)[C@H](C)N(C)C(=O)[C@H]([C@@H](C)CC)NC(=O)[C@@H]2CSSC[C@H](NC1=O)C(=O)N[C@@H](Cc1ccc(O)cc1)C(=O)N[C@@H](CCCCN)C(=O)N[C@@H](CO)C(=O)N[C@@H]([C@@H](C)CC)C(=O)N1CCC[C@H]1C(=O)N1CCC[C@H]1C(=O)N[C@@H]([C@@H](C)CC)C(=O)N2	Dose-dependent effect

System: not listed separately
Assay: Inhibition of TAU derived synthetic hexapeptide AcPHF6 fibril formation at compound:AcPHF6 ratio of 1:1 to 1:64 incubated for 60 mins by thioflavin S fluorescence assay

SMILES	inhibition
CC[C@H](C)[C@@H]1NC(=O)[C@@H]2CCCN2C(=O)[C@@H]2CCCN2C(=O)[C@H]([C@@H](C)CC)NC(=O)[C@H](CO)NC(=O)[C@H](CCCCN)NC(=O)[C@H]([C@@H](C)O)NC(=O)[C@H](C)NC(=O)[C@H](CCCNC(=N)N)NC(=O)CNC(=O)[C@H](CC(=O)O)NC(=O)[C@@H]2CCCN2C(=O)[C@H](Cc2ccccc2)NC(=O)[C@H](C)NC1=O (cyclo(AFPDGRATKSIPPI))	Active
CC[C@@H](C)[C@@H]1NC(=O)[C@@H]2CSSC[C@H](NC(=O)[C@@H]([C@H](C)CC)NC(=O)CNC(=O)[C@H]3CCCN3C1=O)C(=O)N[C@H](Cc1ccc(O)cc1)C(=O)N[C@H](CCCCN)C(=O)N[C@H](CO)C(=O)N[C@H]([C@H](C)CC)C(=O)N1CCC[C@H]1C(=O)N1CCC[C@H]1C(=O)NCC(=O)N2	Active
CC[C@H](C)[C@@H]1NC(=O)[C@H](CCC(N)=O)NC(=O)[C@H](C(C)C)NC(=O)CNC(=O)[C@H]2CCCN2C(=O)[C@H](C(C)C)NC(=O)[C@H](C)N(C)C(=O)[C@H]([C@@H](C)CC)NC(=O)[C@H](C)NC(=O)[C@H]([C@@H](C)CC)NC(=O)[C@@H]2CCCN2C(=O)[C@@H]2CCCN2C(=O)[C@H]([C@@H](C)CC)NC(=O)[C@H](CO)NC(=O)[C@H](CCCCN)NC(=O)[C@H](Cc2ccc(O)cc2)NC(=O)[C@H](C(C)C)NC1=O	Active
CC[C@H](C)[C@@H]1NC(=O)[C@H](CCC(N)=O)NC(=O)[C@H](C(C)C)NC(=O)CNC(=O)[C@H]2CCCN2C(=O)[C@H](C(C)C)NC(=O)[C@H](CCCCN)NC(=O)[C@H]([C@@H](C)CC)NC(=O)[C@@H]2CSSC[C@H](NC1=O)C(=O)N[C@@H](Cc1ccc(O)cc1)C(=O)N[C@@H](CCCCN)C(=O)N[C@@H](CO)C(=O)N[C@@H]([C@@H](C)CC)C(=O)N1CCC[C@H]1C(=O)N1CCC[C@H]1C(=O)NCC(=O)N2	Active
CC[C@H](C)[C@@H]1NC(=O)[C@@H]2CCCN2C(=O)[C@@H]2CCCN2C(=O)[C@H]([C@@H](C)CC)NC(=O)[C@H](CO)NC(=O)[C@H](C)NC(=O)[C@H]([C@@H](C)O)NC(=O)[C@@H]2CSSC[C@H](NC1=O)C(=O)N[C@@H](Cc1ccccc1)C(=O)N1CCC[C@H]1C(=O)N[C@@H](CC(=O)O)C(=O)NCC(=O)N[C@@H](CCCNC(=N)N)C(=O)N2 (cyclo(ASIPPICFPDGRCT); disulfide 7-13)	Active
CC[C@H](C)[C@@H]1NC(=O)[C@H](CCC(N)=O)NC(=O)[C@H](C(C)C)NC(=O)CNC(=O)[C@H](CC(=O)O)NC(=O)[C@@H]2CCCN2C(=O)[C@H](C(C)C)NC(=O)[C@H](CCCCN)NC(=O)[C@H]([C@@H](C)CC)NC(=O)[C@@H]2CSSC[C@H](NC1=O)C(=O)N[C@@H](Cc1ccc(O)cc1)C(=O)N[C@@H](CCCCN)C(=O)N[C@@H](CO)C(=O)N[C@@H]([C@@H](C)CC)C(=O)N1CCC[C@H]1C(=O)N1CCC[C@H]1C(=O)N[C@@H]([C@@H](C)CC)C(=O)N2 (cyclo(CIKVPDGVQICYKSIPPI); disulfide 1-11)	Active
CC[C@H](C)[C@@H]1NC(=O)[C@@H]2CSSC[C@H](NC(=O)[C@H]([C@@H](C)CC)NC(=O)[C@H](CCC(N)=O)NC(=O)[C@H](C(C)C)NC(=O)CNC(=O)[C@H]3CCCN3C(=O)[C@H](C(C)C)NC(=O)[C@H](C)NC1=O)C(=O)N[C@@H](Cc1ccc(O)cc1)C(=O)N[C@@H](CCCCN)C(=O)N[C@@H](CO)C(=O)N[C@@H]([C@@H](C)CC)C(=O)N1CCC[C@H]1C(=O)N1CCC[C@H]1C(=O)N[C@@H]([C@@H](C)CC)C(=O)N2	Active
CC[C@H](C)[C@@H]1NC(=O)[C@H](CCC(=O)O)NC(=O)[C@@H]2CCCN2C(=O)[C@H](Cc2cnc[nH]2)NC(=O)[C@H](CC(=O)O)NC(=O)[C@H](Cc2ccc(O)cc2)NC(=O)[C@H](CC(N)=O)NC(=O)[C@H]2CSSC[C@H](NC(=O)CN)C(=O)N[C@@H](CSSC[C@@H](C(=O)NCC(=O)NCC(=O)N[C@@H](C)C(=O)NCC(=O)NCC(=O)O)NC1=O)C(=O)N[C@H](CO)C(=O)N[C@@H](CC(=O)O)C(=O)N1CCC[C@H]1C(=O)N[C@H](CCCNC(=N)N)C(=O)N2	inactive
CC[C@H](C)[C@@H]1NC(=O)[C@@H]2CCCN2C(=O)[C@@H]2CCCN2C(=O)[C@H]([C@@H](C)CC)NC(=O)[C@H](CO)NC(=O)[C@H](Cc2ccccc2)NC(=O)[C@H](CC(N)=O)NC(=O)[C@@H]2CSSC[C@H](NC1=O)C(=O)N[C@@H](CCC(N)=O)C(=O)N[C@@H](CCCCN)C(=O)N[C@@H](CO)C(=O)N1CCC[C@H]1C(=O)N[C@@H](CC(=O)O)C(=O)NCC(=O)N[C@@H](CO)C(=O)N[C@@H](CC(N)=O)C(=O)N[C@@H](CCC(N)=O)C(=O)N2 (cyclo(CNFSIPPICQKSPDGSNQ); disulfide 1-9)	Active
CC[C@H](C)[C@@H]1NC(=O)[C@H](C)NC(=O)CNC(=O)[C@@H]2CCCN2C(=O)[C@@H]2CCCN2C(=O)[C@H]([C@@H](C)CC)NC(=O)[C@H](CO)NC(=O)[C@H](CCCCN)NC(=O)[C@H](Cc2ccc(O)cc2)NC(=O)[C@H](C)NC(=O)[C@H]([C@@H](C)CC)NC(=O)[C@H](CCC(N)=O)NC(=O)[C@H](C(C)C)NC(=O)CNC(=O)[C@H](CC(=O)O)NC(=O)[C@@H]2CCCN2C(=O)[C@H](C(C)C)NC(=O)[C@H](CCCCN)NC1=O (cyclo(AIKVPDGVQIAYKSIPPG))	Active
CC(C)C[C@H](NC(=O)CN)C(=O)N1CCC[C@H]1C(=O)N[C@H](C(=O)N[C@@H]1CSSC[C@H]2NC(=O)CNC(=O)[C@@H]3CCCN3C(=O)[C@H]([C@@H](C)O)NC(=O)[C@@H](CC(N)=O)NC(=O)[C@H]3CSSC[C@H](C(=O)N[C@@H](C(=O)N[C@H](CCCNC(=N)N)C(=O)N[C@@H](CC(N)=O)C(=O)O)[C@@H](C)O)NC(=O)[C@H](C(C)C)NC(=O)[C@H]4CCCN4C(=O)[C@@H](Cc4c[nH]c5ccccc45)NC(=O)[C@H](CO)NC(=O)[C@@H](CSSC[C@@H](NC(=O)[C@@H]([C@@H](C)O)NC(=O)[C@@H](CCC(=O)O)NC(=O)CNC1=O)C(=O)N[C@@H](C(C)C)C(=O)NCC(=O)NCC(=O)N[C@@H]([C@@H](C)O)C(=O)N3)NC(=O)[C@@H]([C@H](C)O)NC2=O)C(C)C	Active
CC[C@H](C)[C@@H]1NC(=O)[C@H](CCC(N)=O)NC(=O)[C@H](C(C)C)NC(=O)CNC(=O)[C@H]2CCCN2C(=O)[C@H](C(C)C)NC(=O)[C@H](CCC(N)=O)NC(=O)[C@H]([C@@H](C)CC)NC(=O)[C@@H]2CSSC[C@H](NC1=O)C(=O)N[C@@H](Cc1ccc(O)cc1)C(=O)N[C@@H](CCCCN)C(=O)N[C@@H](CO)C(=O)N[C@@H]([C@@H](C)CC)C(=O)N1CCC[C@H]1C(=O)N1CCC[C@H]1C(=O)N[C@@H]([C@@H](C)CC)C(=O)N2	Active
CC[C@H](C)[C@@H]1NC(=O)[C@@H]2CSSC[C@H](NC(=O)[C@H]([C@@H](C)CC)NC(=O)[C@H](CCC(N)=O)NC(=O)[C@@H]3CCCN3C(=O)[C@@H]3CCCN3C(=O)[C@H](C)NC1=O)C(=O)N[C@@H](Cc1ccc(O)cc1)C(=O)N[C@@H](CCCCN)C(=O)N[C@@H](CO)C(=O)N[C@@H]([C@@H](C)CC)C(=O)N1CCC[C@H]1C(=O)N1CCC[C@H]1C(=O)NCC(=O)N2 (cyclo(APPQICYKSIPPGCI); disulfide 6-14)	Active
CC[C@H](C)[C@@H]1NC(=O)[C@H](CCC(N)=O)NC(=O)[C@H](C(C)C)NC(=O)CNC(=O)[C@H]2CCCN2C(=O)[C@H](C(C)C)NC(=O)[C@H](C)NC(=O)[C@H](Cc2ccccc2)NC(=O)[C@@H]2CSSC[C@H](NC1=O)C(=O)N[C@@H](Cc1ccc(O)cc1)C(=O)N[C@@H](CCCCN)C(=O)N[C@@H](CO)C(=O)N[C@@H]([C@@H](C)CC)C(=O)N1CCC[C@H]1C(=O)N1CCC[C@H]1C(=O)N[C@@H]([C@@H](C)CC)C(=O)N2	Active
CC[C@H](C)[C@@H]1NC(=O)[C@H](CCC(N)=O)NC(=O)[C@H](C(C)C)NC(=O)CNC(=O)[C@H](CC(=O)O)NC(=O)[C@@H]2CCCN2C(=O)[C@H](C(C)C)NC(=O)[C@H](CCCCN)NC(=O)[C@H]([C@@H](C)CC)NC(=O)[C@@H]2CSSC[C@H](NC1=O)C(=O)N[C@@H](Cc1ccc(O)cc1)C(=O)N[C@@H](CCCCN)C(=O)N[C@@H](CO)C(=O)N[C@@H]([C@@H](C)CC)C(=O)N1CCC[C@H]1C(=O)N1CCC[C@H]1C(=O)NCC(=O)N2 (cyclo(CIKVPDGVQICYKSIPPG); disulfide 1-11)	Active
CC[C@@H](C)[C@H]1NC(=O)[C@@H]2CCCN2C(=O)[C@@H]2CCCN2C(=O)[C@H]([C@@H](C)CC)NC(=O)[C@H](CO)NC(=O)[C@H](CC(N)=O)NC(=O)[C@H](CCC(=O)O)NC(=O)[C@@H]2CSSC[C@H](NC1=O)C(=O)N[C@@H](CCC(N)=O)C(=O)N[C@H](CCCCN)C(=O)N[C@H](CC(C)C)C(=O)N1CCC[C@H]1C(=O)N[C@H](CC(=O)O)C(=O)NCC(=O)N[C@H](CC(C)C)C(=O)N[C@@H](Cc1ccc(O)cc1)C(=O)N[C@H](CCC(N)=O)C(=O)N2	Active

System: Serum
Assay: Stability in 100% human serum at 30 uM after 24 hrs
Type: ADME

SMILES	Stability
CC[C@H](C)[C@@H]1NC(=O)[C@H](C)NC(=O)CNC(=O)[C@@H]2CCCN2C(=O)[C@@H]2CCCN2C(=O)[C@H]([C@@H](C)CC)NC(=O)[C@H](CO)NC(=O)[C@H](CCCCN)NC(=O)[C@H](Cc2ccc(O)cc2)NC(=O)[C@H](C)NC(=O)[C@H]([C@@H](C)CC)NC(=O)[C@H](CCC(N)=O)NC(=O)[C@H](C(C)C)NC(=O)CNC(=O)[C@H](CC(=O)O)NC(=O)[C@@H]2CCCN2C(=O)[C@H](C(C)C)NC(=O)[C@H](CCCCN)NC1=O (cyclo(AIKVPDGVQIAYKSIPPG))	Stable
CC[C@H](C)[C@@H]1NC(=O)[C@H](CCC(N)=O)NC(=O)[C@H](C(C)C)NC(=O)CNC(=O)[C@H](CC(=O)O)NC(=O)[C@@H]2CCCN2C(=O)[C@H](C(C)C)NC(=O)[C@H](CCCCN)NC(=O)[C@H]([C@@H](C)CC)NC(=O)[C@@H]2CSSC[C@H](NC1=O)C(=O)N[C@@H](Cc1ccc(O)cc1)C(=O)N[C@@H](CCCCN)C(=O)N[C@@H](CO)C(=O)N[C@@H]([C@@H](C)CC)C(=O)N1CCC[C@H]1C(=O)N1CCC[C@H]1C(=O)NCC(=O)N2 (cyclo(CIKVPDGVQICYKSIPPG); disulfide 1-11)	Stable
